Where two headings read alike, the source gives them in different places. Marks after values point to notes of the source that are not given here.
Tests used:
mongrel rats = assay: Antiischemic activity: necrosis zone after coronary artery occlusion (myocardial infarction); type: in vivo; conditions: 4 hours after occlusion, single intraperitoneal immediately after occlusion, 1000 µg/kg
Protocol: Antiischemic activity of a compound was assessed by an integral test, i.e. effect on the necrosis zone area following reproduction of myocardial infarction in mongrel rats weighing 250-300 g.
Effect of a compound on the necrosis zone area was studied in 4 hours after arterial occlusion in rats using a differential indicator method [Sernov L.N., Gatsura V.V. A differential indicator method for determinig ischemic and necrotic zone in experimental myocardial infarction in rats. Bulletin of Experimental Biology and Medicine (1989), No 5, pp. 534-535]. All the painful manipulations were performed on animals under Ethaminal anesthesia (Ethaminal - 40 mg/kg intraperitoneally). Experiment was carried out in 15 hours after the last compound administration. Each group included 8 animals.
Groups of animals: • Group 1 - intact control -administration of normal saline four times. • Groups 2 and 3 - oral administration of the compound III at doses respectively 50 and 500 µg/kg for 4 days. • Group 4 - single intraperitoneal administration of Nicorandil at a dose 1 mg/kg immediately after occlusion.

mongrel male rats [1] = assay: Hypolipidemic activity: experimental hyperlipidemia (atherogenic load); conditions: atherogenic diet, oral last four days; for HDL-CS / Total CS / Triglycerides: blood; for Kcs: cholesterol index;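 on all read-outs here: serum drawn 18 h after the final dose from rats deprived of food over that interval, groups of 10 animals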
Protocol: (§1) Hypolipidemic activity of the compounds of general formula (I) was studied on the model of experimental hyperlipidemia [Arichi H., Kumura H.O. Effects of stibens compounds of roots of polygonum cuspidatium on the lipid metabolism. […] Each group of animals included 10 rats. […] Blood samples were taken for analysis 18 hours after the last administration of the test substances during which period food was taken away from rats.
(§2) The following parameters were determined: total cholesterol (total CS); high density lipoprotein cholesterol (HDL-CS); low density lipoprotein cholesterol and very low density lipoprotein cholesterol (LDL-CS and VLDL-CS); triglycerides (TG). Blood serum CS level was determined according to the Ilk method [Biochemical examination in the clinic. […] HDL-CS level was measured in supernatant following heparine-manganese precipitation of LDL+VLDL [Titov V.N., Brener E.D., Khaltaiev N.G., Zadoya A.A., Tvorogova M.G. A method and diagnostic significance of cholesterol level study in α-lipoproteins. […] LDL-CS level determination was carried out by calculation according to the formula presented in the work Friedwald W.T. [Friedwald W.T., Levy K.J., Leus R. Fat transport in lipoproteins: an integrated approach to mechanism and disorders.
(§3) To assess the effect of the test compounds on the ratio of atherogenic and antiatherogenic blood serum lipoproteins, cholesterol index (Kcs) was calculated according to the formula presented in the work [Klimov A.N., Nikulcheva N.G. Lipoproteins, dylipoproteinemias and atherosclerosis.
(§4) Blood serum TG level was determined using the conventional method [Friedwald W.T., Levy R.I., Fredrickson D.S. Estimation of concentration of low-density lipoprotein cholesterol in plasma, without use of preparative ultracentrifuge.

peritoneal macrophages = assay: Activity of peritoneal macrophages (NBT reduction test); type: in vivo, mongrel white male mice
Protocol: Change in the activity of peritoneal macrophages (PM) as effected by the test compounds was studied.
Experiments were carried out on mongrel white male mice with initial body mass 20-22 g. Each group included 10 animals. Compounds III, VI, XLIV were dissolved in normal saline (NS). The test compounds were administered to animals orally for three days at doses 50 and 500 µg/kg. Animals of the control group were given equal volume of NS. Mice were sacrified 20 hours after the last compound administration, peritoneal cavity was washed with 1.5 ml Henks solution comprising 5 U/ml heparine. 0.1 ml of wash solution were incubated for 30 minutes at 37°C with 0.1 ml 0.2% nitroblue tetrasolium (NBT) solution, then smears were prepared. Nuclei were additionaly stained with o.1% neutral red solution. Results were expressed in percent of active cells [Klimov V.V., Kolovkina T.V. Nitroblue tetrasolium reduction test stimulated with pyrogenal. Laborotornoye delo (Laboratory matter) (1982), No 10, pp. 624-625]. […]

[2] = test system: Lewis pulmonary carcinoma (LLC); assay: Lewis pulmonary carcinoma spontaneous metastasizing, oral administration; type: in vivo; conditions: BDF1 female mice with LLC, oral 24 days; for Mean number of metastases: day 25
Protocol: Each group included 15 animals. 0.3 ml of LLC tumor tissue suspension was intramuscularly injected to mice. Henks solution was used as a solvent. […] Moscow (1992) 13 pp.]. […]

mongrel male rats [3] = conditions: po, 96 h
Protocol: as §1, §2, §3, §4

[4] = test system: hepatic P-450 cytochrome system; assay: Hexenal sleep duration in mice; type: in vivo; conditions: CBF1 mice, oral 3 days, control 25.91 ± 1.57
Protocol: Change in Hexenal sleep (HS) duration is the in vivo measurable index of hepatic P-450 cytochrome system condition.
Studies were carried out on male mice of the lines BALB/c*h75, C57B1/6, CBA, DBA/2, first generation CBF1 and BDF1 hybrides, with initial mass 18-20 g, each group including 10 mice; and on mongrel male guinea pigs with initial mass 250-300 g, each group including 24 animals. All the test compounds (from II to LII) were administered orally in drinking water and for three days at doses 50 and 500 µg/kg. Hexenal hydrochloride at a dose […] of animal mass was administered 24 hours after the last drug administration, except for line BALB/c*h75 mice, which were administered Hexenal at a dose 60 µg/kg at the same terms, and guinea pigs for which Hexenal dose was 30 µg/kg. HS duration was determined in minutes.

superoxide anion-radical = assay: Superoxide anion-radical formation in the xantine-xantine oxidase system (chemiluminescence); type: biochemical
Protocol: Effect of the compounds of general formula (I) on change in chemiluminescence (CL) determined by hydroxyl radical ( OH) and superoxide anion-radical (O2-), in the model chemical and enzymatic systems.
5 to 10 ml of the test compounds dissolved in water were at needed concentration introduced into a cuvette. A total sample volume was 0.5 ml. • B. Superoxide anion-radical in the mixture of xantine and xantine oxidase [Afanas'ev I., Suslova T., Cheremisina Z. et al. Study of antioxidant properties of metal aspartates.
Incubation medium comprised 5 mM KH2PO4; 0.2 IU/ml xantine oxidase. Xantine at concentration 1 mM was introduced into sample through a dispencer. Luceginine (0.2 mM) was used in this system as luminiscence sensitizer.
CL signal indication was performed by its integration every 10 seconds for 5 minutes. CL flash recording duration after mixing ingredients, depended on a particular process kinetics. For each system, CL light sum (mV) was determined in the control samples without preparations (I-) and in samples comprising respective concentrations of preparations (I+). To estimate CL inhibition (activation) degree, the I+/I- ratio (in relative units) was found in the studied systems.
AOF formation and effect of the test compounds on this process were recorded on the Luminometer-1251 instrument (LKB, Sweden).
Because of such "distension" of the kinetic curve, chemiluminescence light sum was recorded during the first 3-5 minutes which reflected a total amount of light quantums produced in the system till achieving the maximum CL intensity values.

hydroxyl radical = assay: Hydroxyl radical formation in the Fenton reagent (chemiluminescence); type: biochemical
Protocol: Active oxygen forms (AOF) of different nature were generated in the following systems: • A. Hydroxyl radical - in the mixture of FeSO4 with H2O2 (the Fenton reagent) [Halliwell B. Superoxide-dependent formation of hydroxyl radicals in the presence of iron salts. […] Incubation medium comprised 5 mM KH2PO4 (pH 7.4); 5 mM FeSO4; 2 mM luminol. H2O2 at final concentration 5 mM was introduced into a cuvette through a dispencer following background luminescence recording of the reagents' mixture. 5 to 10 ml of the test compounds dissolved in water were at needed concentration introduced into a cuvette.
CL flash recording duration after mixing ingredients, depended on a particular process kinetics. For each system, CL light sum (mV) was determined in the control samples without preparations (I-) and in samples comprising respective concentrations of preparations (I+). To estimate CL inhibition (activation) degree, the I+/I- ratio (in relative units) was found in the studied systems.
When H2O2 was introduced into phosphate buffer comprising iron sulfate, CL flash occured which was caused by formation of predominantly hydroxyl radical in the reaction mixture.

[5] = test system: Isolate HIV-1/IV17 of type 1 human immunodeficiency virus; assay: Viability of MT-4 cells acutely infected with HIV-1; type: cell-based; conditions: Human immunodeficiency virus 1, MT4, 168 h, day 7, series 2 (infected cells 24, non-infected 88), read-out: Viability of cells in percent
Protocol: Study was carried out on the culture of human lymphoblastoid cells MT-4. Isolate HIV-1/IV17 of type 1 human immunodeficiency virus from the collection of the D.I.Ivanovsky Institute for Virology was used in experiment. The test compounds of general formula (I): III, VI, VII were introduced into cellular culture at concentrations 1.0; 0.1 and 0.01 µg/ml. The reference drug Azidothymidine was introduced at a dose 0.05 µM/ml. The compounds were introduced into the culture of MT-4 cells at a dose 1000 TCD50 one hour prior to virus introduction. Viability of MT-4 cells was estimated by day 7 of experiment.
Viability of cells was the main efficacy parameter of the test compounds.

[6] = test system: Strain Aichi of type A human influenza virus; type: in vivo; conditions: for MLT, days: series with Control - 2 (9.1), 3 days before and 10 days following infection; for Survival rate in percent: series with Control - 2 (34.5); for Protection degree in percent: series with Control - 2
white mongrel male rats [7] = assay: Carrageenan paw edema, oral administration (series I); type: in vivo; conditions: once 20 µg/kg 1 hour before edema induction
Protocol: Experiment was carried out on white mongrel male rats weighing 280-300 g. Carrageenan-induced edema was caused according to the method of Winter et al. [[inter et al. In: De Rosa M., Giroud J.P., Willoughby D.A. Studies of the mediators of the acute inflammatory reponse induced in rats in different sites by carrageenan and turpentine. […] Paw volume measurement was done using a plethysmograph (Ugo Basile) 1, 3 and 4 hours after carrageenan administration. Inhibition of inflammatory reaction expressed in percent, was calculated according to the formula: 100-[(R-L(exper.))/(L):(R-L(control))/(L)x100](%) [formula] where R - the right paw volume, L - the left paw volume.
Series I of experiment. […] The reference drug Naproxene was once administered at a dose 20 µg/kg 1 hour before edema induction. Each group included 10 animals.

white mongrel male rats [8] = assay: Paw edema induced by Freund's complete adjuvant; type: in vivo; conditions: rats, FCA edema; once 50 µg/kg 1 hour before edema induction
Protocol: Experiment was carried out on white mongrel male rats weghing 280-300 g. The model of paw edema induced by Freund's complete adjuvant (FCA), was reproduced according to the method of Ezamuzie and Umezurike [Ezamuzie Ch., Umezurike C.C. Effect of histamine H2-receptor antagonists on acute inflammatory of the rat paw oedema. J. Pharmacol. (1989), Vol. 41, pp. 261-265]. Paw volume measurement was done using a plethysmograph (Ugo Basile). Inhibition of inflammatory reaction expressed in percent, as calculated according to the formula: 100-[(R-L(exper.))/(L):(R-L(control))/(L)x100](%) [formula] where R - the right paw volume, L - the left paw volume.
Each group included 10 animals.
Group of animals: • Group 1 - control, animals were administered 0.5 ml of 1% starch solution. • Group 2 - animals were administered the compound XLVIII. • Group 3 - animals were administered the compound III. • Group 4 - animals were administered Naproxene.

[9] = 0.01 mM, control of the series as in the table
[10] = 0.1 mM, control of the series as in the table

With `O=C(NCCO[N+](=O)[O-])c1cccnc1` [Nicorandil, reference compound] the “Ischemia zone, percent to the total myocardial mass” value (mongrel rats) was 25,0 ± 1,9%, the “Necrosis zone percent to myocardial zone” value (mongrel rats) was 44,3 ± 5,0% and the “Necrosis zone, percent to the total myocardial mass” value (mongrel rats) was 11,3 ± 1,6%.
With `CC(=O)N[C@@H](CCC(=O)NCCc1c[nH]cn1)C(=O)O` [VI, N -ACETHYL-γ-L-GLUTAMYLHISTAMINE] the HDL-CS (mongrel male rats [1]; 50 µg/kg) was 35,7±5,6*^A, the “Total CS” value (mongrel male rats [1]; 50 µg/kg) was 86,0±5,2 and the Triglycerides (mongrel male rats [1]; 50 µg/kg) was 141,2±16,1***^A. For the same compound, the HDL-CS (mongrel male rats [1]; 500 µg/kg) was 45,8±3,5***^A, the “Total CS” value (mongrel male rats [1]; 500 µg/kg) was 70,8±3,7***^A and the Triglycerides (mongrel male rats [1]; 500 µg/kg) was 127,2+7,1***^A. For the same compound, the Kcs (mongrel male rats [1]; 50 µg/kg) was 1,41±0,16***^A, the Kcs (mongrel male rats [1]; 500 µg/kg) was 0,55±0,04***^A and the “portion of active macrophages” value (peritoneal macrophages; mice, oral three days at 50 and 500 µg/kg) was “at a dose 50 µg/kg”. For the same compound, the “Activity of macrophages, percent” value (peritoneal macrophages; score 0 (no formazane inclusions, inactive PM), 50 µg/kg orally for three days) was 17.9 ± 1.4%, the “Activity of macrophages, percent” value (peritoneal macrophages; score 0 (no formazane inclusions, inactive PM), 500 µg/kg orally for three days) was 20.3 ± 3.4% and the “Activity of macrophages, percent” value (peritoneal macrophages; score 1 (single formazane inclusions), 50 µg/kg orally for three days) was 30.9 ± 3.0%. The “Activity of macrophages, percent” value (peritoneal macrophages; score 1 (single formazane inclusions), 500 µg/kg orally for three days) was 37.9 ± 3.1%, the “Activity of macrophages, percent” value (peritoneal macrophages; score 2 (inclusions fill up to 1/3 of PM cytoplasm), 50 µg/kg orally for three days) was 40.3 ± 2.1% and the “Activity of macrophages, percent” value (peritoneal macrophages; score 2 (inclusions fill up to 1/3 of PM cytoplasm), 500 µg/kg orally for three days) was 34.0 ± 4.0%. The “Activity of macrophages, percent” value (peritoneal macrophages; score 3 (inclusions fill up to 1/2 of PM cytoplasm), 50 µg/kg orally for three days) was 10.4 ± 1.9%, the “Activity of macrophages, percent” value (peritoneal macrophages; score 3 (inclusions fill up to 1/2 of PM cytoplasm), 500 µg/kg orally for three days) was 7.1 ± 2.0% and the “Mean number of metastases” value ([2]; 50 µg/kg) was 35.5 ± 4.5*^2. For the same compound, the “Mean number of metastases” value ([2]; 500 µg/kg) was 39.0 ± 14.0, the Metastasizing inhibition percent ([2]; 50 µg/kg) was 24.0% and the Metastasizing inhibition percent ([2]; 500 µg/kg) was 17.0%. The “LDL-CS+ VLDL-CS” value (mongrel male rats [3]; 0.05 mg/kg) was 50,3±5,5**^A, the “LDL-CS+ VLDL-CS” value (mongrel male rats [3]; 0.5 mg/kg) was 25,0±1,6***^A and the “Hexenal sleep duration (minutes)” value ([4]; 50 µg/kg) was 16.86 ± 1.38*** minutes. For the same compound, the “Hexenal sleep duration (minutes)” value ([4]; 500 µg/kg) was 14.39 ± 1.73*** minutes, the “Chemiluminiscence intensity (mV) + σn-1” value (superoxide anion-radical; [9]) was 7295 ± 106 mV and the “relative effect: 1+/I-” value (superoxide anion-radical; 0.1 mM) was 0.76. The “Chemiluminiscence intensity (mV) + σn-1” value (superoxide anion-radical; [10]) was 5518 ± 131 mV, the “relative effect: 1+/I-” value (superoxide anion-radical; 1 mM) was 0.12 and the “Chemiluminiscence intensity (mV) + σn-1” value (superoxide anion-radical; 1 mM, control of the series 5616 ± 173, 5391 ± 195, 7290 ± 128 or 6776 ± 150) was 902 ± 15 mV. The “Chemiluminiscence intensity (mV) + σn-1” value (hydroxyl radical; [9]) was 5014 ± 186 mV, the “relative effect: I+/I-” value (hydroxyl radical; 0.1 mM) was 0.63 and the “Chemiluminiscence intensity (mV) + σn-1” value (hydroxyl radical; [10]) was 3110 ± 210 mV. For the same compound, the “relative effect: I+/I-” value (hydroxyl radical; 1 mM) was 0.05, the “Chemiluminiscence intensity (mV) + σn-1” value (hydroxyl radical; 1 mM, control of the series 7839 ± 171, 1120 ± 163, 4974 ± 283 or 1332 ± 172) was 257 ± 74 mV and the viability at 0.01 µg/mL ([5]; 0.01 µg/ml) was 45%. For the same compound, the viability at 0.1 µg/mL ([5]; 0.1 µg/ml) was 49%, the viability at 1 µg/mL ([5]; 1.0 µg/ml) was 54% and the “MLT, days” value ([6]; 50 µg/kg orally) was 11.24*^2 days. The “MLT, days” value ([6]; 500 µg/kg orally) was 11.62*^2 days, the “Survival rate in percent” value ([6]; 50 µg/kg orally) was 73.3*^2% and the “Survival rate in percent” value ([6]; 500 µg/kg orally) was 79.3*^2%. The “Protection degree in percent” value ([6]; 50 µg/kg orally) was 38.8% and the “Protection degree in percent” value ([6]; 500 µg/kg orally) was 44.8%.
With `COc1ccc2cc([C@H](C)C(=O)O)ccc2c1` [Naproxene, reference compound] the “Inflammation inhibition (%)” value (white mongrel male rats [7]) was 37%, the Volume increment (white mongrel male rats [7]) was 0.48 ± 0.02 and the “Volume of paws (conditional units) Right” value (white mongrel male rats [7]) was 1.82 ± 0.54 conditional units. For the same compound, the “Volume of paws (conditional units) left” value (white mongrel male rats [7]) was 1.34 ± 0.25 conditional units, the “Inflammation inhibition (%)” value (white mongrel male rats [8]) was 44% and the Volume increment (white mongrel male rats [8]) was 0.45 ± 0.02. For the same compound, the “Volume of paws (conditional units) Right” value (white mongrel male rats [8]) was 1.75 ± 0.54 conditional units and the “Volume of paws (conditional units) left” value (white mongrel male rats [8]) was 1.30 ± 0.25 conditional units.

From patent EP2229935A1, “Peptide derivatives or pharmaceutically acceptable salts thereof, method for producing the same, use of said derivatives and pharmaceutical composition” (Nebolsin, Vladimir Evgenievich, priority 1997, dated 1999)
